Earlier results, collected in paper PMC5863612 (Chemical Science, 2017).

System: βPGM
Conditions: for Km: previously recorded result

Km | Compound | Inhibition of βPGM (reported range)
– | fluorine | low millimolar range
14.7 µM | O=P(O)(O)O[C@@H]1O[C@H](CO)[C@@H](O)[C@H](O)[C@H]1O [βG1P, β-D-glucose 1-phosphate] | –
0.72 ± 0.04 µM | O=P(O)(O)OC[C@H]1O[C@@H](OP(=O)(O)O)[C@H](O)[C@@H](O)[C@@H]1O [βG16BP, β-glucose-1,6-bisphosphate] | –
